We go through seven compounds from patent publication US6235711A, “Cell adhesion ihibiting compounds” (Zeneca Limited, priority 1996, dated 2001).

Test [1] has as its system αvβ3 as well as αIIbβIIIa. The settings on record: cited from earlier work.
Test [2] concerns the target T1, fibronectin (Homo sapiens, UniProt P05556+P13612).
T1 construct: host or cells: Jurkat cells; fibronectin coated on plates
To be noted: cited from earlier work.

Another test addresses T2, α4β1 (Homo sapiens, UniProt P05556+P13612).
T2 construct: host or cells: Jurkat cells (endogenous integrin)
To be noted: Jurkat cells; read-out: IC50, blocking Jurkat cell adhesion to CS-1 coated plates; cited from earlier work.

In another test the test system is Balb/C female mice. Briefly: In vivo ovalbumin delayed type hypersensitivity model. To be noted: ovalbumin in the footpad. The procedure: Balb/C female mice (20-25 g) were immunised on the flank with an emulsion of ovalbumin (Sigma; 0.1 ml subcutaneous injection of 2 mg/ml solution mixed (1:1) with complete Freunds adjuvant; Difco). Seven days later the mice were challenged by subplantar injection of ovalbumin (30 μl of 1% heat aggregated ovalbumin in saline) into the left hind foot pad. Swelling of the foot developed over a 24 hour period following which foot pad thickness was measured and compared to the pre-challenge thickness. The percentage increase in foot pad thickness was calculated. Compounds were delivered by continuous infusion at doses within the range from 10 mg/kg/day to 0.001 mg/kg/day from subcutaneous Alzet osmotic minipumps which were implanted 24 hours prior to the ovalbumin challenge. Inhibition of the inflammatory response was calculated comparing vehicle treated animals and compound treated groups (n=5 animals per group).

The test system of test [3] is fibronectin. To be noted: cited from earlier work.
The target in test [4] is T3, VCAM-1-IgG fusion protein (Homo sapiens, UniProt P05556+P13612).
T3 construct: host or cells: HL-60 cells (endogenous integrin); VCAM-1-IgG fusion protein of unstated origin
To be noted: HL-60 cells; read-out: IC50, binding of HL-60 cells to VCAM-1-IgG fusion protein; cited from earlier work.

Positions of bridges follow the written chain, without caps; N, C: chain ends. Non-standard residues stand in square brackets, D forms with d. Residues, ends and D or L forms follow the SMILES beside them. No end group written: not given here. *: point of attachment. Acetyl(1-adamantyl) = O=C(CC12CC3CC(CC(C3)C1)C2)*; NMeF = CN[C@@H](Cc1ccccc1)C(=O)O Where only a bound is given, the exact number is not on record here.

T3 sequence (P13612 34-1032): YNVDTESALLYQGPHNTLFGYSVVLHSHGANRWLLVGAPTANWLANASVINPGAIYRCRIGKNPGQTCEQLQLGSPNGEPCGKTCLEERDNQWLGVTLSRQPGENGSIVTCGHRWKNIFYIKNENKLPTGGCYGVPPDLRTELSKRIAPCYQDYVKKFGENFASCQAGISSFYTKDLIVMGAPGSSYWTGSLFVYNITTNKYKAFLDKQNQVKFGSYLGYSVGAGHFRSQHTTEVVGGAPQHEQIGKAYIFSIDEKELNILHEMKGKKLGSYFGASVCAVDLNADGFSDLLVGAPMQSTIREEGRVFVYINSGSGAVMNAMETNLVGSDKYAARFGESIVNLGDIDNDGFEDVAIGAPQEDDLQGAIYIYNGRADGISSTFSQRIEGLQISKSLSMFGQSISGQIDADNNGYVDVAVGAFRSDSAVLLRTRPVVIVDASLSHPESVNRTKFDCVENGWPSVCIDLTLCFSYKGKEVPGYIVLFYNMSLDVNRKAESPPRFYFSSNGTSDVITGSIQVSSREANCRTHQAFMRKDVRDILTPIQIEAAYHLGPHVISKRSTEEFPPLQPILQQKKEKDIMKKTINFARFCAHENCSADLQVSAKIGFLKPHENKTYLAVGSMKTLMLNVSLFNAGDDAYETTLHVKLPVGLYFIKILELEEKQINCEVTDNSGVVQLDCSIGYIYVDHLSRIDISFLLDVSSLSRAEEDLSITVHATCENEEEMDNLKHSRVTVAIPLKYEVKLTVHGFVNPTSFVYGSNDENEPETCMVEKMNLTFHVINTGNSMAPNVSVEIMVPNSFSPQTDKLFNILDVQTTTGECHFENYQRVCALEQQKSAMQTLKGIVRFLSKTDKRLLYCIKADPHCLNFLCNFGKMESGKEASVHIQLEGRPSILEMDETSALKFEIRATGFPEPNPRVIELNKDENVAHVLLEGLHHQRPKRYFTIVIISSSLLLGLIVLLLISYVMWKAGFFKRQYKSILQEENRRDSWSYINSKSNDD
T3 sequence (P05556 21-798): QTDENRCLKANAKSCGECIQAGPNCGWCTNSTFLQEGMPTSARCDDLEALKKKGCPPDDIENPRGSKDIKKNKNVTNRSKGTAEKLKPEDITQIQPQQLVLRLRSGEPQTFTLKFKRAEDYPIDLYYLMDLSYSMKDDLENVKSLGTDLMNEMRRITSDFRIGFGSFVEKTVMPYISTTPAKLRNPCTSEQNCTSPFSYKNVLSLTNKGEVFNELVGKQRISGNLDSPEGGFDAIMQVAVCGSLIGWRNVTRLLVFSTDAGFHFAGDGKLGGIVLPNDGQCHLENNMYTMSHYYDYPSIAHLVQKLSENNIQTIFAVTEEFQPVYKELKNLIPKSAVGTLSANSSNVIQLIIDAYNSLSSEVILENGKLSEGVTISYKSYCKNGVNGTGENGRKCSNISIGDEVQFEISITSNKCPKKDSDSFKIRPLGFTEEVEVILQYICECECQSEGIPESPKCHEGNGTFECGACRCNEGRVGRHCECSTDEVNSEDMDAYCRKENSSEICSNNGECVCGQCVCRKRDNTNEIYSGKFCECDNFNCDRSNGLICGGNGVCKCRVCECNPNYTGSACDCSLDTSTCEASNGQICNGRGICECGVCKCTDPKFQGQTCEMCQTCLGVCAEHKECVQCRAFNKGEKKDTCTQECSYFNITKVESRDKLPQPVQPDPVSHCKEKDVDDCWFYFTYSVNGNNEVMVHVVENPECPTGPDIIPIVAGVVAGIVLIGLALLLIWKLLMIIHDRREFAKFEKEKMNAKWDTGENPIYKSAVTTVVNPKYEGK
T2 sequence (P13612 34-1032): as the sequence (P13612 34-1032) above
T2 sequence (P05556 21-798): as the sequence (P05556 21-798) above
T1 sequence (P13612 34-1032): as the sequence (P13612 34-1032) above
T1 sequence (P05556 21-798): as the sequence (P05556 21-798) above

On to “1-adamantaneacetyl-Cys-Gly-Arg-Gly-Asp-Ser-Pro-Cys ({Acetyl(1-adamantyl)}-CGRGDSPC; disulfide 1-8 (inferred))”, for which the “function in αvβ3 as well as αIIbβIIIa-dependent assays” value in test [1] is on record as “inhibited function”. In the test with fibronectin [2], the “binding of Jurkat cells to fibronectin coated plates” value is on record as “inhibited the binding”. The IC50 with α4β1 was 30 µM. As to `CC(C)C[C@@H]1NC(=O)[C@H](Cc2ccccc2)N(C)C(=O)[C@@H](CCCNC(=N)N)NC(=O)[C@@H](CCCNC(=N)N)NC(=O)[C@H](C(C)C)NC(=O)[C@H](CC(=O)O)NC1=O` [compound 20, c(MePhe-Leu-Asp-Val-D-Arg-D-Arg)] (cyclo(DV[dR][dR][NMeF]L)), in the test with Balb/C female mice, the “dose required to produce a half-maximal inhibitory response in DTH” value was 0.01 mg/kg/day. With Arg-Cys-Asp-thioproline-Cys, the “leukocyte cell adhesion to fibronectin” value with fibronectin [3] is reported as “inhibitor”. Moreover, the “binding to the 120 kDa chymotryptic fragment of fibronectin” value in the test on fibronectin [3] (fragment contains the Arg-Gly-Asp central cell binding domain) is “inhibited the binding”. For the compound CLHGPEILDVPST, in the test with α4β1, the IC50 was 30 µM. Consider c(Glu-TripLeu-Asp-Val), for which the IC50 in test [4] was 94 µM. “c(Glu-Trp-Leu-Asp-Val-Asp) (EWLDVD; cyclised; printed: Glu-Trp-Leu-Asp-Val-Asp)”: the IC50 in test [4] was > 1000 µM.

Turning to “c(Glu-Trp-Leu-Asp-Val-Pro-Glu-Trp-Leu-Asp-Val) (EWLDVPEWLDV; cyclised; printed: Glu-Trp-Leu-Asp-Val-Pro-Glu-Trp-Leu-Asp-Val)”, in test [4], the IC50 was > 1000 µM.

The IC50 is the concentration that inhibits the measured activity by half.
